From patent US5597809A, “Treatment of optic neuritis” (priority 1994, dated 1997)
Entries after “also recorded” stand apart in the source; their conditions may differ. Like-named read-outs stand apart in the source and are kept apart here.

Assays:
retinal ganglion cells [1] = assay: Toxicity of other drugs to retinal ganglion cells and prevention by MK801 (FIG. 8); assay type: cell-based
Method: FIG. 8 is a bar graph showing prevention of drug toxicity by the protective agent, MK801. […] Retinal ganglion cells were incubated for 24 hours with either drug alone (5-fluorouracil (5-FU), Defororixamine, and Tamoxifenor drug +MK801, followed by measurement of cell viability.
As discussed above, other drugs are known to cause optic neuropathy (see Table 13). However, the mechanism of drug toxicity has not been defined. Experiments were carried out to determine whether NMDA antagonists prevented retinal cell damage induced by such drugs. […] The cytotoxic effect of these drugs on retinal ganglion cells was prevented by the NMDA antagonist, MK801.

retinal ganglion cells [2] = assay: Attenuation of ethambutol toxicity by NMDA antagonists and a calcium channel blocker (retinal ganglion cell viability, FIG. 3); settings: for retinal ganglion cell viability, drug alone: no ethambutol; for protection of retinal ganglion cells from ethambutol-mediated toxicity: 24 hours
[3] = test system: M. tuberculosis and M. avium isolates; assay: Minimal inhibitory concentration of ethambutol by radiometric Bactec technique with and without protective agents; assay type: cell-based, Mycobacterium tuberculosis; Mycobacterium avium
[4] = test system: all other cells of the retinal dissociations; assay: Viability of the other cell types in dissociated retinal preparations exposed to ethambutol; assay type: cell-based, rat; settings: increasing concentrations, 24 hours
Method: FIG. 1 is a line graph showing dose-dependent toxicity of ethambutol to retinal ganglion cells in vitro. Dissociated rodent retinal ganglion cells were incubated with increasing concentrations of ethambutol for 24 hours. The ability of cells to take up and cleave fluorescein diacetate was used as an index of their viability and lack of injury. […] Retinal ganglion cells (open circles) and all other cells (open squares) were scored separately for viability. […] (*) indicates statistical difference by an analysis of variance (ANOVA) followed by Scheffe multiple comparison of means, P<0.01. Values were normalized to control (n=1) and represent the means ± standard deviations of four experiments; at least 150 retinal ganglion cells scored for control values in each experiment.
Initial experiments were carried out in vitro. Freshly dissociated rat retinal preparations were exposed to increasing concentrations of ethambutol. […] Retinal cells were incubated in the presence of increasing concentrations of ethambutol, and scored for viability at 24 hours. Retinal ganglion cells were identified by the presence of DiI fluorescence.
Viability was assayed by uptake and cleavage of a second fluorescent dye, fluorescein diacetate. Ethambutol toxicity was detected only in retinal ganglion cells (FIG. 1, open circles). […]

retinal ganglion cells [5] = assay: Fura-2 intracellular calcium in retinal ganglion cells (response to NMDA and ethambutol); assay type: cell-based, rat; settings: for effect on intracellular calcium, ethambutol alone: 10 μM ethambutol; for greater rise in intracellular calcium with ethambutol + NMDA than with NMDA alone: 10 μM ethambutol + 100 μM NMDA
Method: FIG. 6 is a bar graph showing the effect of ethambutol and Zn^2+ on the cellular response to NMDA. Dissociated retinal ganglion cells were labeled with the calcium sensitive dye, fura-2. 100 μM NMDA were then applied by puffer, and the peak intracellular calcium concentration measured (peak response occurred between 10 and 70 seconds after NMDA exposure for all cells). The indicated drugs were then applied in the following concentrations: 10 μM ethambutol (Eth) or 100 μM Zn^2+. Values are means ± standard deviations. Ethambutol + NMDA led to a 20% greater rise in intracellular calcium then NMDA alone. (*) indicates statistical difference by an analysis of variance (ANOVA) followed Scheffe multiple comparison of means, P<0.01. Ethambutol, NMDA, and Zn^2+ simultaneously led to the same rise seen with NMDA alone. Ethambutol alone or in combination with Zn^2+ had no effect under these conditions.
(§1) Neuronal intracellular free Ca^2+ concentration ([Ca^2+ ]i) was analyzed with fura-2 acetoxymethyl ester (fura 2-AM; Molecular Probes) following procedures known in the art. DiI labeled retinal ganglion cells were subsequently labeled with fura-2. Agonists (NMDA-glycine, glutamate, etc.) were applied by pneumatic pipettes (aperture […], 3-6 psi) placed 10-20 μm from the cells of interest. Data were analyzed via the Metamorph software package (Image 1).
There are several possible explanations for the finding that ethambutol toxicity to retinal ganglion cells is mediated through the NMDA receptor. A primary effect of NMDA is its known ability to increase intracellular calcium in neurons; this effect was monitored via the fluorescent dye, fura 2. Accordingly, dissociated retinal ganglion cells were labeled with fura-2. Ethambutol in concentrations from 1 nM to 1 mM was puffed onto retinal ganglion cells for periods of up to five minutes. No change was detected in 25 of 25 cells examined. As a control, 100 μM NMDA was subsequently puffed onto these cells, and in 23 of 25 cells the intracellular calcium rose to […] or higher.
Since a rise in intracellular calcium is one of the neuron's first responses to exogenously applied glutamate or NMDA, the following experiment was performed to detect changes in intracellular calcium. Dissociated retinal ganglion cells were labeled with the calcium sensitive dye, fura 2. Fura 2 allows for measurement of cytosolic calcium concentrations.
100 μM NMDA was applied to individual retinal ganglion cells, and the rise in intracellular calcium measured. The cells were then allowed to recover, and the intracellular calcium returned to baseline. 10 μM ethambutol and 100 μM NMDA were then simultaneously applied to the same cell (FIG. 6, second bar).
As a second experiment, 100 μM Zn^2+ chloride was added to the ethambutol/NMDA puffer. In the presence of 100 μM Zn^2+, 100 μM NMDA plus 10 μM ethambutol led to a rise in intracellular calcium that was indistinguishable from NMDA alone (FIG. 6, third bar). […] Accordingly, exogenous Zn^2+ reduced the NMDA/ethambutol response to the baseline NMDA response.

retinal cultures = assay: Endogenous glutamate in retinal cultures by HPLC; assay type: cell-based, rat; settings: overnight incubation with ethambutol
Method: The role of endogenous glutamate in ethambutol toxicity was evaluated. Endogenous glutamate in retinal cultures was 26±2 μM (mean ±standard deviation, n=12) (as measured by high pressure liquid chromatography).
This level of endogenous glutamate was not affected by overnight incubation with ethambutol. […] Nevertheless, experiments were carried out to determine whether endogenous glutamate was required for the expression of ethambutol toxicity in these preparations. […] The endogenous glutamate was specifically degraded by the addition of the enzyme glutamate-pyruvate transaminase (GPT) in the presence of the cosubstrate pyruvate.

retinal ganglion cells [6] = settings: 10 μM ethambutol, within 24 hours
retinal ganglion cells [7] = assay: cells; settings: Rattus norvegicus, 24 h, read-out: half maximal effect of ethambutol toxicity to retinal ganglion cells, 24 hours incubation; viability by fluorescein diacetate
in vitro = settings: rat, retinal ganglion cells
[8] = cited from earlier work
[9] = test system: retinal ganglion cell layer; assay: In vivo toxicity of ethambutol to the retina; settings: 100 mg/kg daily, orally, 30 days
[10] = test system: NMDA-evoked [Ca2+]i responses; assay: Digital calcium imaging of NMDA-evoked [Ca2+]i responses; assay type: cell-based; settings: 6 μM memantine, 200 μM NMDA
Method: It has now been discovered that memantine inhibits NMDA-evoked [Ca^2+ ]i responses. […] In fact, [Ca^2+ ]i rose only to levels associated with a low degree of NMDA receptor stimulation in the presence of memantine.
as §1

NMDA receptor = settings: at the resting potential; cited from earlier work

Compound: O=c1[nH]cc(F)c(=O)[nH]1 [5-FU, 5-fluorouracil]
- toxicity to retinal ganglion cells (retinal ganglion cells [1]): toxic to retinal ganglion cells

Compound: NC(CCCP(=O)(O)O)C(=O)O (stereo not drawn) [APV, 2-amino-5-phosphonovalerate]
- retinal ganglion cell viability, drug alone (retinal ganglion cells [2]; 100 μM drug): did not affect cell viability

Compound: N#Cc1cc2nc(O)c(O)nc2cc1[N+](=O)[O-] [CNQX, 6-cyano-7-nitroquinoxaline-2,3-dione]
- protection of retinal ganglion cells from ethambutol-mediated toxicity (retinal ganglion cells [2]; 100 μM drug with 10 μM ethambutol): ineffective at preventing ethambutol-mediated cell death
- retinal ganglion cell viability, drug alone (retinal ganglion cells [2]; 100 μM drug): did not affect cell viability

Compound: CC(=O)N(O)CCCCCNC(=O)CCC(=O)N(O)CCCCCNC(=O)CCC(=O)N(O)CCCCCN [Defororixamine, deferoxamine]
- toxicity to retinal ganglion cells (retinal ganglion cells [1]): toxic to retinal ganglion cells

Compound: C[C@]12N[C@H](Cc3ccccc31)c1ccccc12 [MK-801, dizocilpine]
- effect on the cytotoxic effect of 5-FU, Defororixamine and Tamoxifen on retinal ganglion cells (retinal ganglion cells [1]; drug + MK801, 24 hours): prevented
- effect on the concentration of ethambutol necessary to kill mycobacterial strains ([3]; 12 μM agent): had no effect
- protection of retinal ganglion cells from ethambutol-mediated toxicity (retinal ganglion cells [2]; 12 μM drug with 10 μM ethambutol): do protect retinal ganglion cells from ethambutol induced injury; also recorded: protect retinal ganglion cells from ethambutol-mediated toxicity
- retinal ganglion cell viability, drug alone (retinal ganglion cells [2]; 12 μM drug): did not affect cell viability

Compound: CC/C(=C(\c1ccccc1)c1ccc(OCCN(C)C)cc1)c1ccccc1 [Tamoxifen]
- toxicity to retinal ganglion cells (retinal ganglion cells [1]; drug alone, 24 hours): toxic to retinal ganglion cells

Compound: CC[C@@H](CO)NCCN[C@@H](CC)CO [ethambutol]
- ethambutol toxicity in other cell types [4]: No ethambutol toxicity
- change in intracellular calcium, ethambutol alone (retinal ganglion cells [5]; 1 nM to 1 mM puffed for up to five minutes, 25 of 25 cells): No change
- effect on intracellular calcium, ethambutol alone (retinal ganglion cells [5]): had no effect on intracellular calcium
- greater rise in intracellular calcium with ethambutol + NMDA than with NMDA alone (retinal ganglion cells [5]): ≥ 20%
- greater rise in intracellular calcium with ethambutol + NMDA than with NMDA alone (retinal ganglion cells [5]; listed as Ethambutol): 20%
- effect on intracellular calcium, ethambutol alone (retinal ganglion cells [5]; listed as Ethambutol): had no effect
- effect on the level of endogenous glutamate (retinal cultures): not affected
- retinal ganglion cells that died compared to sibling control cultures (retinal ganglion cells [6]): Approximately half
- EC50 (retinal ganglion cells [7]): 10 µM
- cytotoxicity at 24 h, 10 µM (in vitro): ≥ 50%
- patients developing optic neuropathy ([8]; patients taking ethambutol): up to 15%
- patients with permanent visual loss ([8]; patients taking ethambutol): up to 3%
- concentration ([8]; read-out: concentration in the cerebrospinal fluid, patients taking the drug orally): 10 µM
- loss of cells in the retinal ganglion cell layer versus control [9]: 18%
- other ocular pathology [9]: no other ocular pathology was detected

Compound: CC12CC3CC(C)(C1)CC(N)(C3)C2.Cl [memantine, 1-amino-3,5-dimethyladamantane hydrochloride]
- effect on excessive influx of calcium elicited by NMDA [10]: largely prevent
- effect on the concentration of ethambutol necessary to kill mycobacterial strains ([3]; 12 μM agent): had no effect
- Ki (NMDA receptor): 1 to 2 µM
- protection of retinal ganglion cells from ethambutol-mediated toxicity (retinal ganglion cells [2]; 12 μM drug with 10 μM ethambutol, hydrochloride): do protect retinal ganglion cells from ethambutol induced injury; also recorded: protect retinal ganglion cells from ethambutol-mediated toxicity
- retinal ganglion cell viability, drug alone (retinal ganglion cells [2]; 12 μM drug): did not affect cell viability

Compound: COCCOC(=O)C1=C(C)NC(C)=C(C(=O)OC(C)C)C1c1cccc([N+](=O)[O-])c1 (stereo not drawn) [nimodipine]
- effect on the concentration of ethambutol necessary to kill mycobacterial strains ([3]; 100 nM agent): had no effect
- protection of retinal ganglion cells from ethambutol-mediated toxicity (retinal ganglion cells [2]; 100 nM drug with 10 μM ethambutol): do protect retinal ganglion cells from ethambutol induced injury; also recorded: protect retinal ganglion cells from ethambutol-mediated toxicity
- retinal ganglion cell viability, drug alone (retinal ganglion cells [2]; 100 nM drug): did not affect cell viability
